Read-outs that look alike come from different tables or passages of the source. Where a SMILES comes first, the peptide text is derived from it.
What was measured:
[1] = biological target: T1, Chymotrypsin, from human pancreas (Homo sapiens, UniProt P17538)
[2] = biological target: T2, CathepsinG, from human neutrophils (Homo sapiens, UniProt P08311); test: Enzymatic assay, cathepsin G; conditions: Cathepsin G IC50
T2 sequence (P08311 21-244): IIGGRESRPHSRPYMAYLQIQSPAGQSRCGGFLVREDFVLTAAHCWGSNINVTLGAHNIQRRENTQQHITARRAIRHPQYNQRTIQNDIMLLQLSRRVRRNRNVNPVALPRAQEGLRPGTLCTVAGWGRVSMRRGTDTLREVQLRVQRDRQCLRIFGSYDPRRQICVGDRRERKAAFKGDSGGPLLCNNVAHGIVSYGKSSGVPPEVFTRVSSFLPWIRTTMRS

[3] = biological target: T3, Trypsin, from human pancreas (Homo sapiens, UniProt P07477)
[4] = biological target: T4, Elastase from human neutrophils (Homo sapiens, UniProt P08246); test: Enzymatic assay, elastase
T4 sequence (P08246 30-267): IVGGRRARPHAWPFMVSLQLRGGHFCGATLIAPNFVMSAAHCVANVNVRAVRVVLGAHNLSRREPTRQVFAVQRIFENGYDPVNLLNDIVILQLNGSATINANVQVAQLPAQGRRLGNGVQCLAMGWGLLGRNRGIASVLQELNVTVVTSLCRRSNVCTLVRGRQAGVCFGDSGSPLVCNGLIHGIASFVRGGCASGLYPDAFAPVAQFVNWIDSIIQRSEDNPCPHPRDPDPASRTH

Chymase, from human skin [5] = biological target: T5, Chymase, from human skin (Homo sapiens, UniProt P23946)
T5 sequence (P23946 22-247): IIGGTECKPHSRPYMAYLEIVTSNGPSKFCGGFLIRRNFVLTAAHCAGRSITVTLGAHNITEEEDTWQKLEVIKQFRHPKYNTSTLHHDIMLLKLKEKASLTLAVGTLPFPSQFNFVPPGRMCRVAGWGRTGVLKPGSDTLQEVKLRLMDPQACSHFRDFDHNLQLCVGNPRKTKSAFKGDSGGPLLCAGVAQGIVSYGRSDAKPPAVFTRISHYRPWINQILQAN

[6] = biological target: T3, Trypsin, from human pancreas; test: Enzymatic assay, trypsin; conditions: at 100 μM
[7] = Pharmacokinetic study after single oral (gavage) and intravenous administration in rats; conditions: rat
Procedure: 2.6. Pharmacokinetic Study (PK)
Pharmacokinetic Study after Single Oral (Gavage) and Intravenous Administration in Rats
Blood samples (approx. 0.24 ml) were taken following the schedule below at different time points into heparinized tubes by automated blood sampling using the DiLab AccuSampler. When a problem occurred during automated blood sampling, blood was sampled by retro-orbital bleeding under light isoflurane anesthesia. Samples were taken at the following time points: 0, 5 min (only i.v.), 15, 30 min and 1, 2, 4, 8, 16, 24 and 36 (only p.o.) hours and added to heparinized tubes. Plasma was removed from pelleted cells upon centrifugation and frozen at −80° C. prior to HPLC-MS analysis.
Preparation of the Plasma Calibration Samples
“Blank” rat plasma from untreated animals was used. […] The OASIS® HLB cartridges were conditioned with 1 ml of methanol and then with 1 ml of 1% NH3 in water. Samples were then diluted with 400 μl of 1% NH3 in water and loaded. The plate was washed with 1 ml of methanol/1% NH3 in water 5/95. Elution was performed using 1 ml of 0.1% TFA in methanol.
The plate containing eluates was introduced into the concentrator system and taken to dryness. The residues were dissolved in 100 μl of formic acid 0.1%/acetonitrile, 95/5 (v/v) and analysed in the HPLC/MS on a reverse phase analytical column (Jupiter C18, 50×2.0 mm, 5 μm, Phenomenex), using gradient elution (mobile phases A: 0.1% formic acid in water, B: Acetonitrile; from 5% B to 100% B in 2 min.).
Preparation of Plasma Samples
From each sample 100 μl of plasma were taken for the extraction. If the volume was less than 100 μl the appropriate amount of “blank” mouse plasma was added in order to keep the matrix identical to the calibration curve. Samples were then spiked with IS and processed as described for the calibration curve.
Pharmacokinetic Evaluation
The area under the curve AUC was calculated by the linear trapezoidal rule. AUC(t-∞) was estimated as Ct/b (b: elimination rate constant). […] the sum of AUC(0-t) and AUC(t-∞). Elimination half-life was calculated by the linear regression on at least three data points during the elimination phase. The time intervals selected for the half-life determinations were evaluated by the correlation coefficient (r^2), which should be at least above 0.85 and most optimally above 0.96. In case of i.v. administration the initial concentration at tzero was determined by extrapolation of the curve through the first two time points.

[8] = biological target: T6, Coagulation Factor Xa, from uman plasma (Homo sapiens, UniProt P00742); test: Enzymatic assay, coagulation factor Xa
T6 sequence (P00742 235-488 limits assumed): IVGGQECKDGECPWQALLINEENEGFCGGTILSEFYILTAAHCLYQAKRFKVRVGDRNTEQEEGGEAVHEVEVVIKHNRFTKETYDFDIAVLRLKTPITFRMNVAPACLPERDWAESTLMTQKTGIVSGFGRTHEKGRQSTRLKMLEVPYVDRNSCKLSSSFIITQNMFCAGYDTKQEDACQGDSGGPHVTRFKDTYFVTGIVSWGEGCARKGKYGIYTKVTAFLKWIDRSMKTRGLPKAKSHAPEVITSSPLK
T6 sequence (P00742 41-179 limits assumed): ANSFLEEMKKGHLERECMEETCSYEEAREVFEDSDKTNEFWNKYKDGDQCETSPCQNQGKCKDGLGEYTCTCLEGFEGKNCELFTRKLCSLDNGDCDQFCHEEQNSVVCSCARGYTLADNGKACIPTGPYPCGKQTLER

[9] = assay type: in vitro ADME; conditions: 10 µM
Procedure: 405 μl of plasma/albumin solution were placed in a polypropylene (PP) tube and spiked with 45 μl of compound from a […] solution B, derived from 135 μl of PBS and 15 μl of 1 mM peptide in PBS, pH 7.4. 150 μl aliquots were transferred into individual wells of the 10 kDa filter plate (Millipore MAPPB 1010 Biomax membrane). For “0 minutes controls”: 270 μl of PBS were placed in a PP tube and 30 μl of stock solution B was added and vortexed. 150 μl of control solution were placed into one well of the filter plate and served as “filtered control”.
Further 150 μl of control solution were placed directly into a receiver well (reserved for filtrate) and served as “not-filtered control”. The entire plate including evaporation lid was incubated for 60 min at 37° C. Plasma samples (rat plasma: Harlan Sera lab UK, human plasma: Blutspendezentrum Zürich) were centrifuged at least for 2 h at 4300 rpm (3500 g) and 15° C. in order to yield 100 filtrate. For “serum albumin”-samples (freshly prepared human albumin: Sigma A-4327, rat albumin: Sigma A-6272, all at 40 mg/ml concentration in PBS) approximately 1 hour of centrifugation was sufficient. The filtrates in the receiver PP plate were analysed by LC/MS as follower follows: Column: Jupiter C18 (Phenomenex), mobile phases: (A) 0.1% formic acid in water and (B) acetonitrile, gradient: 5%-100% (B) in 2 minutes, electrospray ionization, MRM detection (triple quadrupole). The peak areas were determined and triplicate values were averaged. The binding was expressed in percent of the (filtered and not-filtered time point 0 min) control 1 and 2 by: 100−(100×T60/T0). The average from these values was then calculated.

[10] = biological target: T7, Thrombin, from Human Plasma (Homo sapiens, UniProt P00734); test: Enzymatic assay, thrombin
[11] = test system: Tryptase, from human lung; test: Enzymatic assay, tryptase; conditions: at 100 μM
[12] = biological target: T1, Chymotrypsin, from human pancreas; test: Enzymatic assay, chymotrypsin
[13] = biological target: Urokinase from human urine (Homo sapiens, UniProt P00749); test: Enzymatic assay, urokinase
Chymase, from human skin [14] = biological target: T5, Chymase, from human skin; test: Enzymatic assay, chymase
[15] = biological target: T2, CathepsinG, from human neutrophils
HELA cells (Acc57) = test: Cytotoxicity assay (MTT reduction), HELA cells; assay type: cell-based; conditions: Hela cells
How it was run: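 HeLa cells were grown for 24 h, then exposed to peptides at 12.5, 25 and 50 μM in triplicate for 48 h at 37 °C. MTT reduction was read at 595 nm and growth % calculated relative to time-zero wells. LC50 interpolated by linear trend at −50% growth, GI50 at 50%.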

[16] = biological target: T7, Thrombin, from Human Plasma
[17] = biological target: T6, Coagulation Factor Xa, from uman plasma

T1 sequence (P17538 19-263): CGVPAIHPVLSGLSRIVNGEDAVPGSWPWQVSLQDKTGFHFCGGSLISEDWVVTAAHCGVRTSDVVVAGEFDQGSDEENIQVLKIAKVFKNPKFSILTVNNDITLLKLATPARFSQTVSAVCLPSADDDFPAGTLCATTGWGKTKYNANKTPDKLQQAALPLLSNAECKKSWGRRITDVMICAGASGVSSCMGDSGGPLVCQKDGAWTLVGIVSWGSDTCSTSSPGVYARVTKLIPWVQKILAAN

Structure (SMILES): CC[C@H](C)[C@@H]1NC(=O)[C@@H]2CCCN2C(=O)[C@@H]2CCCN2C(=O)[C@H](CCC(=O)O)NC(=O)[C@H](CO)NC(=O)[C@H](CCCCN)NC(=O)[C@H]([C@@H](C)O)NC(=O)[C@@H]2CSSC[C@H](NC1=O)C(=O)N[C@@H](CO)C(=O)N1CCC[C@@H]1C(=O)N1CCC[C@H]1C(=O)N[C@@H](Cc1ccccc1)C(=O)N2 [Ex. 21] (HELM PEPTIDE1{F.C.T.K.S.E.P.P.I.C.S.[dP].P}$PEPTIDE1,PEPTIDE1,2:R3-10:R3|PEPTIDE1,PEPTIDE1,1:R1-13:R2$$$V2.0)
- Chymotrypsin at 100 μM % [1]: 2.6%
- IC50 [2]: 97 nM
- Trypsin at 100 μM % [3]: 95.6%
- IC50 ([4]; Elastase IC50): 16.4 nM
- Chymase at 100 μM % (Chymase, from human skin [5]): 5%

Structure (SMILES): CC[C@H](C)[C@@H]1NC(=O)[C@@H]2CCCN2C(=O)[C@@H]2CCCN2C(=O)[C@H](CC(=O)O)NC(=O)[C@H](CO)NC(=O)[C@H](CCCCN)NC(=O)[C@H]([C@@H](C)O)NC(=O)[C@@H]2CSSC[C@H](NC1=O)C(=O)N[C@@H](Cc1ccccc1)C(=O)N1CCC[C@@H]1C(=O)N1CCC[C@H]1C(=O)N[C@@H](CCCNC(=N)N)C(=O)N2 [Ex. 75] (HELM PEPTIDE1{R.C.T.K.S.D.P.P.I.C.F.[dP].P}$PEPTIDE1,PEPTIDE1,2:R3-10:R3|PEPTIDE1,PEPTIDE1,1:R1-13:R2$$$V2.0)
- Trypsin at 100 μM % [6]: 92.6%
- half-life ([7]; male, Wistar, in vivo, iv, 5 mg/kg): 30 min
- level at 0.25 h ([7]; male, Wistar, iv, 5 mg/kg): 5770 ng/mL
- level at 0.5 h ([7]; male, Wistar, iv, 5 mg/kg): 3460 ng/mL
- level at 4 h ([7]; male, Wistar, iv, 5 mg/kg): 18 ng/mL
- Cmax ([7]; male, Wistar, po): 46 ng/mL
- Vd (apparent distribution volume) ([7]; male, Wistar, po, 50 mg/kg): 1008 mL/kg
- level at 4 h ([7]; male, Wistar, po, 50 mg/kg): 24 ng/mL
- apparent distribution volume after oral administration, fold higher than after i.v. [7]: about 1.8 fold
- % absorbed (F) (percentage of normalized AUC0-∞ po. against normalized AUC0-∞ i.v.) ([7]; 5 mg/kg): 100%
- % absorbed (F) (percentage of normalized AUC0-∞ po. against normalized AUC0-∞ i.v.) ([7]; 50 mg/kg): 1.3%
- Cmax norm ([7]; iv, 5 mg/kg): 0.08 ng/mL
- initial distribution volume ([7]; iv, 5 mg/kg): 355 mL/kg
- Cmax norm ([7]; po, 50 mg/kg): 0.25 ng/mL
- FXa at 100 μM % [8]: 5.7%
- Stability human Plasma t1/2 [9]: 300 min
- Stability rat Plasma t1/2 [9]: 300 min
- Thrombin at 100 μM % [10]: 1.1%
- Tryptase at 100 μM % [11]: 0%
- Chymotrypsin at 100 μM % ([12]; at 100 μM): 7.8 at 100 μM %
- IC50 [2]: 86 nM
- Elastase at 100 μM % ([4]; at 100 μM (stated in cell instead of IC50)): 69.1 at %
- Urokinase at 100 μM % [13]: 5.7%
- Chymase at 100 μM % (Chymase, from human skin [14]): 0%

Structure (SMILES): CCCCCCCC[C@@H]1NC(=O)[C@H](CO)NC(=O)[C@H](C)NC(=O)[C@H]([C@@H](C)O)NC(=O)[C@@H]2CSSC[C@H](NC(=O)[C@H](CCC(N)=O)NC(=O)[C@@H]3CCCN3C(=O)[C@@H]3CCCN3C1=O)C(=O)N[C@@H](Cc1ccc(O)cc1)C(=O)N1CCC[C@@H]1C(=O)N1CCC[C@H]1C(=O)N[C@@H](CCCC)C(=O)N2 [Ex. 81] (HELM PEPTIDE1{[Nle].C.T.A.S.[CCCCCCCC[C@H](N[*:1])C(=O)[*:2]].P.P.Q.C.Y.[dP].P}$PEPTIDE1,PEPTIDE1,2:R3-10:R3|PEPTIDE1,PEPTIDE1,1:R1-13:R2$$$V2.0)
- Cathepsin G at 100 μM % [15]: 61.3 at 100%
- Cytotoxicity LC50/GI50 Hela cells (HELA cells (Acc57)): 58 µM
- Thrombin at 100 μM % [16]: 13.1%
- IC50 [12]: 100 µM
- FXa at 100 μM % [17]: 8.7%
- IC50 ([4]; Elastase IC50): 28 nM

Structure (SMILES): CCCC[C@@H]1NC(=O)[C@@H]2CCCN2C(=O)[C@@H](C)NC(=O)[C@H](Cc2ccc(O)cc2)NC(=O)[C@@H]2CSSC[C@H](NC1=O)C(=O)N[C@@H]([C@@H](C)O)C(=O)N[C@@H](C)C(=O)N[C@@H](CO)C(=O)N[C@@H]([C@@H](C)CC)C(=O)N1CCC[C@H]1C(=O)N1CCC[C@H]1C(=O)N[C@@H](CCC(N)=O)C(=O)N2 [Ex. 130] (HELM PEPTIDE1{[Nle].C.T.A.S.I.P.P.Q.C.Y.[dA].P}$PEPTIDE1,PEPTIDE1,2:R3-10:R3|PEPTIDE1,PEPTIDE1,1:R1-13:R2$$$V2.0)
- IC50 ([4]; Elastase IC50): 29 nM
- Chymase at 100 μM % (Chymase, from human skin [5]): <4000%

Structure (SMILES): CCCC[C@@H]1NC(=O)[C@@H]2CCCN2C(=O)[C@H]2CCCN2C(=O)[C@H](CCC(N)=O)NC(=O)[C@@H]2CSSC[C@H](NC1=O)C(=O)N[C@@H]([C@@H](C)O)C(=O)N[C@@H](C)C(=O)N[C@@H](CO)C(=O)N[C@@H]([C@@H](C)CC)C(=O)N1CCC[C@H]1C(=O)N1CCC[C@H]1C(=O)N[C@@H](CCC(N)=O)C(=O)N2 [Ex. 131] (HELM PEPTIDE1{[Nle].C.T.A.S.I.P.P.Q.C.Q.[dP].P}$PEPTIDE1,PEPTIDE1,2:R3-10:R3|PEPTIDE1,PEPTIDE1,1:R1-13:R2$$$V2.0)
- IC50 [2]: 45 nM
- Trypsin at 100 μM % [3]: 0%
- IC50 ([4]; read-out: Elastase IC50): 28 nM

— US8658604B2, “Template-fixed beta-hairpin peptidomimetics with protease inhibitory activity” (Polyphor Ltd, priority 2005, dated 2014)
